The subject of this data set is BT474 human breast carcinomas cell line. The data set is described as follows: In Vivo Tumor Models: BT474 xenograft. The settings on record: BT474 (HER2+) xenograft in CB-17/SCID mice, 100 mg/kg once per day oral gavage, 5 days on/2 days off, 4 weeks. From the text: Xenografts were initiated with BT474 human breast carcinomas cell line and maintained by serial subcutaneous transplantation in CB-17/SCID mice (Charles River). On the day of tumor implant, each test mouse received a 1 mm^3 BT474 fragment implanted subcutaneously in the right flank, and tumor growth was monitored as the average size approached the target range of 100 to 150 mm3. About three weeks post-implantation, the animals were randomized and grouped based on tumor volume and mouse body weight. […] Tumors were measured in two dimensions using calipers, and volume was calculated using the formula: Tumor Volume (mm^3)=w^2×l/2.

Regarding `CC1(N)CCN(c2cnc3c(-c4cccc(Cl)c4Cl)n[nH]c3n2)CC1` [Example 1, 1-(3-(2,3-dichlorophenyl)-1H-pyrazolo[3,4-b]pyrazin-6-yl)-4-methylpiperidin-4-amine], the “tolerability (body weight)” value was “tolerated dose” and the tumor growth result is given as “significant suppression of tumor growth”.

The values are drawn from patent publication US10851110B2, “Heterocyclic inhibitors of PTPN11” (priority 2016, dated 2020).
